Measurements taken from ChEMBL document CHEMBL5465560, “Selectivity Literature for EUbOPEN Chemogenomic Library” (2024).

Columns and labels:
[1] = target: Histone-lysine N-methyltransferase KMT5B (Homo sapiens) (UniProt Q4FZB7); conditions: at 1 µM
[2] = target: Bromodomain-containing protein 2 (Homo sapiens) (UniProt P25440); experiment: Selectivity interaction (Bromodomain panel (DSF asssay)) EUB0000270b BRD2
[3] = target: Epidermal growth factor receptor (Homo sapiens, UniProt P00533); experiment: Selectivity interaction (Kinase panel (Invitrogen)) EUB0000639a EGFR; conditions: at 200 nM
[4] = target: T1, Ephrin type-B receptor 6 (Homo sapiens) (UniProt O15197); experiment: Selectivity interaction (KinomeScan (DiscoverX)) EUB0000595a EPHB6; conditions: at 10 µM
T1 sequence (whole entry): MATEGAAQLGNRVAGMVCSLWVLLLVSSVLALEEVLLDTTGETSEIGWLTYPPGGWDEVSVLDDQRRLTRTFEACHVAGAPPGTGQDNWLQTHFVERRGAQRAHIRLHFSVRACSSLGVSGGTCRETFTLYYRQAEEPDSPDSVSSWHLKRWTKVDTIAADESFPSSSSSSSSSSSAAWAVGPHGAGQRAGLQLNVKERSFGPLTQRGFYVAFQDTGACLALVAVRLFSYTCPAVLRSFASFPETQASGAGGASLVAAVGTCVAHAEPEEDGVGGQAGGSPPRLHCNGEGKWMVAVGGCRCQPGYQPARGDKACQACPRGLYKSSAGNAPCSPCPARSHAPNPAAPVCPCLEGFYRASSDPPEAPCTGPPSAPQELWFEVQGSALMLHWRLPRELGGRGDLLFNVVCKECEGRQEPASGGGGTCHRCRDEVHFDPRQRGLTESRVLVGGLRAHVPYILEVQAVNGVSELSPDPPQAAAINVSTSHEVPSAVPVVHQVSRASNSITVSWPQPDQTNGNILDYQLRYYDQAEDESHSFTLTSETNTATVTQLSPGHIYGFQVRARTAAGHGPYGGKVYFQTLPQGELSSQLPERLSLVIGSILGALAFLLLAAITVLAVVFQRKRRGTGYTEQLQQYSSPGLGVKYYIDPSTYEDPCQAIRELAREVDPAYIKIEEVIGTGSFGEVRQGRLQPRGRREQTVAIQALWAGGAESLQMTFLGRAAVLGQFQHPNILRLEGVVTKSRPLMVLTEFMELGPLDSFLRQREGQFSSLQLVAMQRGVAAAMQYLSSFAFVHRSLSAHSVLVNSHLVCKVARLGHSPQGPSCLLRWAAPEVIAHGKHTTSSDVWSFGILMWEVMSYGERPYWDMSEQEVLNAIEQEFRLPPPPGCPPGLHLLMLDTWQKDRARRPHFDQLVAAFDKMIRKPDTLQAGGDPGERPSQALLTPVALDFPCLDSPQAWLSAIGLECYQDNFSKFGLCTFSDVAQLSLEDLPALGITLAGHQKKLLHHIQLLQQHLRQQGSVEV

[5] = target: Serine/threonine-protein kinase RIO2 (Homo sapiens) (UniProt Q9BVS4); experiment: Selectivity interaction (KinomeScan (DiscoverX)) EUB0000092b RIOK2; conditions: at 10 µM
[6] = target: T2, Serine/threonine-protein kinase 3 (Homo sapiens) (UniProt Q13188); experiment: Selectivity interaction (ActivX KiNativ screen (ex vivo kinase selectivity in human PBMCs)) EUB0001619a STK3; format: cell-based; conditions: PBMC, at 1 µM
T2 sequence (whole entry): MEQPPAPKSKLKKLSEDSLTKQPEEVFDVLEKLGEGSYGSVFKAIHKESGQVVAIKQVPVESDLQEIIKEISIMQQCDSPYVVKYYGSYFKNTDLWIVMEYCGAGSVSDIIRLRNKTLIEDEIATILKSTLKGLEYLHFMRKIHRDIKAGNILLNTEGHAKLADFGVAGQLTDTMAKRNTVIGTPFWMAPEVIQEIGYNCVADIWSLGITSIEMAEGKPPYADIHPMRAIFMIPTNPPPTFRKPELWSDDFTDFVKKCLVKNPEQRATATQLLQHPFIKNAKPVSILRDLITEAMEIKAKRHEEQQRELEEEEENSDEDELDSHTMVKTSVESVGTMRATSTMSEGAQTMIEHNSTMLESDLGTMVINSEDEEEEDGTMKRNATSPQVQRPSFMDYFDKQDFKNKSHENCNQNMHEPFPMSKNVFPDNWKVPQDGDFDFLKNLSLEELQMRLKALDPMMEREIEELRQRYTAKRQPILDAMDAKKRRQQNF

[7] = target: Serine/threonine-protein kinase tousled-like 2 (Homo sapiens) (UniProt Q86UE8); experiment: Selectivity interaction (ActivX KiNativ screen (ex vivo kinase selectivity in human PBMCs)) EUB0001619a TLK2; format: cell-based; conditions: PBMC, at 1 µM
[8] = target: T3, Testis-specific serine/threonine-protein kinase 2 (Homo sapiens) (UniProt Q96PF2); experiment: Selectivity interaction (SelectScreen profiling (Invitrogen)) EUB0000607a TSSK2; conditions: at 2 µM
T3 sequence (whole entry): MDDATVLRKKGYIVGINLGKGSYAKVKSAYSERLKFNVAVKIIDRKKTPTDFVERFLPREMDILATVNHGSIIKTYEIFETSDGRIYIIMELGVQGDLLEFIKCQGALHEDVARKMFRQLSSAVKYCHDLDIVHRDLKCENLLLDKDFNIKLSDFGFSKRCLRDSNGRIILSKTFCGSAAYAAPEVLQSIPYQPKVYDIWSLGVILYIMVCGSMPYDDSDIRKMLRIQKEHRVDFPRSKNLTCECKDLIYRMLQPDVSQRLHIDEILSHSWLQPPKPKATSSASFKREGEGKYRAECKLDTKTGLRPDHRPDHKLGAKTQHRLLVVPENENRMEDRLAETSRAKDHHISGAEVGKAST

[9] = target: T4, Serine/threonine-protein kinase MAK (Homo sapiens) (UniProt P20794); experiment: Selectivity interaction (KinomeScan (DiscoverX)) EUB0000607a MAK; conditions: at 10 µM
T4 sequence (whole entry): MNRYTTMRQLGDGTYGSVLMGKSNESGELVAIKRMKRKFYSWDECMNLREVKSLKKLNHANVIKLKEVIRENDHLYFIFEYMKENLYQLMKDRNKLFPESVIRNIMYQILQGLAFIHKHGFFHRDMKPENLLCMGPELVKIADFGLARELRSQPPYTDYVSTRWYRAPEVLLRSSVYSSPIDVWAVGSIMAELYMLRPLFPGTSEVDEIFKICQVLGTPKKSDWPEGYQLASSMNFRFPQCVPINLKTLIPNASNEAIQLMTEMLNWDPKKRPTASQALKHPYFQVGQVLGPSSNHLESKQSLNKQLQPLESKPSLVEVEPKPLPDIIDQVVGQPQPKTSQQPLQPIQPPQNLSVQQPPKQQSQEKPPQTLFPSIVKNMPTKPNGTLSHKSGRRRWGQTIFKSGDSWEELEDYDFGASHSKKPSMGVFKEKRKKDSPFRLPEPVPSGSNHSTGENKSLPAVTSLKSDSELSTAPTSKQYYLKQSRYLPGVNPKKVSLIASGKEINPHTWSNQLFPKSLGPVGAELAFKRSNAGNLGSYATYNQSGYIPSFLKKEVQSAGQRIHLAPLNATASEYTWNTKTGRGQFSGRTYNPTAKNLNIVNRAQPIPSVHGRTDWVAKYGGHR

Chain of Epidermal growth factor receptor (P00533 whole entry): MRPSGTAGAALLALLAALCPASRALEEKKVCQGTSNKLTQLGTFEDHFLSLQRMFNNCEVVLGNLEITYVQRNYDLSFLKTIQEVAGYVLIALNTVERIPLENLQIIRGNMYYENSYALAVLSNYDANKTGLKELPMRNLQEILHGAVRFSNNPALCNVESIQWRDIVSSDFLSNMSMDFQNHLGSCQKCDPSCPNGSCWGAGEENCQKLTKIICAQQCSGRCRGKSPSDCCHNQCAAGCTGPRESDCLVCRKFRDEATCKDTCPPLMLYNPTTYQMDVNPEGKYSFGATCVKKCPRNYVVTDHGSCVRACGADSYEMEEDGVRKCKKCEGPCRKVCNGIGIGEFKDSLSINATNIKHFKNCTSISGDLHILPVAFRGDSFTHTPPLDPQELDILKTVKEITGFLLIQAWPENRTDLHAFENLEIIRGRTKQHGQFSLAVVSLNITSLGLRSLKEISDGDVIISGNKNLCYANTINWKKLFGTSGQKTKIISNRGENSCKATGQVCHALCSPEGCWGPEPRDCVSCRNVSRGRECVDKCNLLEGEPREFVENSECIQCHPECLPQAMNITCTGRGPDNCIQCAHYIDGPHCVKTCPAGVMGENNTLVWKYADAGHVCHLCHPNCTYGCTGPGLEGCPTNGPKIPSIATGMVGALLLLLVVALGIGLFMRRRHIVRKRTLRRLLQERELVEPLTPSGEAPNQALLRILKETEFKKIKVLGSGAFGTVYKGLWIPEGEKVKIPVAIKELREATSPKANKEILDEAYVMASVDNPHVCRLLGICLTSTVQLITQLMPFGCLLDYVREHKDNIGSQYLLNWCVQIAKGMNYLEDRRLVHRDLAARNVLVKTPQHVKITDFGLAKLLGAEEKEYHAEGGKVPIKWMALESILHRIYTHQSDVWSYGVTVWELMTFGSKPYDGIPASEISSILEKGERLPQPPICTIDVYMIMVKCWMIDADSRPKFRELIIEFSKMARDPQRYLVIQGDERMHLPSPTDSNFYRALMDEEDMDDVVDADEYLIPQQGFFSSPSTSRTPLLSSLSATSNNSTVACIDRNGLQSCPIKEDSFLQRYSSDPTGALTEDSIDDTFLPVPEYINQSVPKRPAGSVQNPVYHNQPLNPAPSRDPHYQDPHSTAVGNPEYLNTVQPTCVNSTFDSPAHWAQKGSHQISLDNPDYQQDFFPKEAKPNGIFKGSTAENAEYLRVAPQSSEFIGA
Chain of Bromodomain-containing protein 2 (Homo sapiens) (P25440 whole entry, looked up): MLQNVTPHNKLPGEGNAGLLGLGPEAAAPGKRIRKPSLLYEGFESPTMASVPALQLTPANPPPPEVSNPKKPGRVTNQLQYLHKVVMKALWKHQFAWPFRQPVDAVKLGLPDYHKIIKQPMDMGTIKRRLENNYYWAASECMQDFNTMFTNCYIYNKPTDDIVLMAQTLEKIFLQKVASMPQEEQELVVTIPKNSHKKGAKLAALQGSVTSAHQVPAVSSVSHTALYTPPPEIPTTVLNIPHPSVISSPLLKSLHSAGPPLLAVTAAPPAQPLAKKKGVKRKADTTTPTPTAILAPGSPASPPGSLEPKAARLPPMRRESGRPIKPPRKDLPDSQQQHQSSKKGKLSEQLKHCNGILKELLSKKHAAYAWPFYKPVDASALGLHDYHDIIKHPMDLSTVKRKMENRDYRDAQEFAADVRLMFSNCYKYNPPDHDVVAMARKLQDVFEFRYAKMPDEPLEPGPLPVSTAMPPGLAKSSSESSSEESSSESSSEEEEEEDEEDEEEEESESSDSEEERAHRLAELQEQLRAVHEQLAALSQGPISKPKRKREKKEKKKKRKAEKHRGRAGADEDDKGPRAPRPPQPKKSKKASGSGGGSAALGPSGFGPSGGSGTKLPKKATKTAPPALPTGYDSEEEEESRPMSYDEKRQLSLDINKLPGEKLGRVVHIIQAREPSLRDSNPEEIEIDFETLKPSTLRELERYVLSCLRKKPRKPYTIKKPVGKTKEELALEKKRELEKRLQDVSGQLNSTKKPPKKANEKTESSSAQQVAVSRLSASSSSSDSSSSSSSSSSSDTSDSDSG
Chain of Serine/threonine-protein kinase tousled-like 2 (Homo sapiens) (Q86UE8 whole entry, looked up): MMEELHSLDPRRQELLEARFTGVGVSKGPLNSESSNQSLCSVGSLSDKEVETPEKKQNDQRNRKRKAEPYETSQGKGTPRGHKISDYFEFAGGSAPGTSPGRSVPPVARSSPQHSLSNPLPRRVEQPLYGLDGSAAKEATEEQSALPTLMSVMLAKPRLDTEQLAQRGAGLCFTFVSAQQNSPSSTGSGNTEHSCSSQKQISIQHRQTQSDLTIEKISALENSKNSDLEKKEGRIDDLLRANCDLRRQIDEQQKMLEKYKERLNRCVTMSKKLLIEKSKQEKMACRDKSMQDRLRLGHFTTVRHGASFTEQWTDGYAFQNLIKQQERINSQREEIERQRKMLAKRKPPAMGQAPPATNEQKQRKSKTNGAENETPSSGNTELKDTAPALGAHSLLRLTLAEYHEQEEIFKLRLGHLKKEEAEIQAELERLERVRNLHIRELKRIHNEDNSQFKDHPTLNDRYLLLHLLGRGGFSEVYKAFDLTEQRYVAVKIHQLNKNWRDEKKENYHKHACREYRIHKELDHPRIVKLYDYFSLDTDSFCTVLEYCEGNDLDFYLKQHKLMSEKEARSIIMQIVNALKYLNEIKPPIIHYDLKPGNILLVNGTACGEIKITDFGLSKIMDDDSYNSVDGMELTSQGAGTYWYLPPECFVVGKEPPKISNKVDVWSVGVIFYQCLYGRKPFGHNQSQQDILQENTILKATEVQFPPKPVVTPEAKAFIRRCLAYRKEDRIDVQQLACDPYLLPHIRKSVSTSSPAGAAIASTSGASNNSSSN
Chain of Histone-lysine N-methyltransferase KMT5B (Homo sapiens) (Q4FZB7 whole entry, looked up): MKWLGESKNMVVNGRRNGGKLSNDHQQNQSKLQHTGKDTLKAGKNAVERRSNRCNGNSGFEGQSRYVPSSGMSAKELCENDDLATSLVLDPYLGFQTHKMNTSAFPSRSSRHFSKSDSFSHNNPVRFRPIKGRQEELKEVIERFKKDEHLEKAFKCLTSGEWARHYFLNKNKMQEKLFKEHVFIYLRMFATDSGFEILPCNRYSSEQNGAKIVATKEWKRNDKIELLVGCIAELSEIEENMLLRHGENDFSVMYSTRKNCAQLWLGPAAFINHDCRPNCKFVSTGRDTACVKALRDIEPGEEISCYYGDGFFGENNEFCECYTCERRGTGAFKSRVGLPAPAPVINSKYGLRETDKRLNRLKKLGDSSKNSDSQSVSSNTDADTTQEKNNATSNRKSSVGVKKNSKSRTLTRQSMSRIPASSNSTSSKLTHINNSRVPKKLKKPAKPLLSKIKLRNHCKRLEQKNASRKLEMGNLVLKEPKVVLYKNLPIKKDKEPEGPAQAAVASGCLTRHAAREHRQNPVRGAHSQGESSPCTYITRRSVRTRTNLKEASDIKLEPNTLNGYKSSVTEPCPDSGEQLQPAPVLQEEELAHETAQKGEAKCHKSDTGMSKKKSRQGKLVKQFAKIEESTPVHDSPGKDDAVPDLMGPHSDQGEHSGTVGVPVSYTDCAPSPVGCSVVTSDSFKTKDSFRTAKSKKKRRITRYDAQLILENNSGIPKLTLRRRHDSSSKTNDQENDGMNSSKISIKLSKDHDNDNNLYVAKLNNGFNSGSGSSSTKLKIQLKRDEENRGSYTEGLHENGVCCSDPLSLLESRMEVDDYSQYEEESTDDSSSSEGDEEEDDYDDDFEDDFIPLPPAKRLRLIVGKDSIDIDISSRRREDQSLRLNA
Chain of Serine/threonine-protein kinase RIO2 (Homo sapiens) (Q9BVS4 whole entry, looked up): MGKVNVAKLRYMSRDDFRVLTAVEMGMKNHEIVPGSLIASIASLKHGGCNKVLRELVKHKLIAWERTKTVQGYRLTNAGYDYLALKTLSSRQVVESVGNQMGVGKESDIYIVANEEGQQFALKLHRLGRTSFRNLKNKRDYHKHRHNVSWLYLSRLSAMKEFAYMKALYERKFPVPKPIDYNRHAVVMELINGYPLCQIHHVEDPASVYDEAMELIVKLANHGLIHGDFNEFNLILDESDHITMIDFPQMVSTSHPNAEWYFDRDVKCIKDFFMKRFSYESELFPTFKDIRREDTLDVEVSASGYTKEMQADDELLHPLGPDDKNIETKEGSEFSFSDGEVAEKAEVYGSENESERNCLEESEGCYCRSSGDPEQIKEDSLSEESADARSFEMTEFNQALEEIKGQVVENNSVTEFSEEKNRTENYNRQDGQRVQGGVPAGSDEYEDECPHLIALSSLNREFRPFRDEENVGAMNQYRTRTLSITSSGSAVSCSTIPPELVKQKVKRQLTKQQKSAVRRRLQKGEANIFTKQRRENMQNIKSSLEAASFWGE

In the case of CNCCN1CCC(c2cc(CN(C)C(=O)c3cccc(Oc4ccccc4)c3)ccn2)CC1, the % activity [1] is reported as > 90%.
In the case of Cc1cc(CN)cc(C)c1-c1ncn(C)c1-c1cncn1C, the dTM [2] is reported as -1.04 K.
Work on CC[C@@H]1[C@H](F)C(=O)N[C@@H]1COc1nccc2cc(C(N)=O)c(OC)cc12 [ZIMLOVISERTIB] yielded a % of inhibition [3] of 1.25%.
For COCC(=O)NC/C=C/c1ccc2ncnc(Nc3ccc(Oc4ccc(C)nc4)c(C)c3)c2c1 [CP-724714], the % of control [4] was 74%.
CCC(=O)N1CCN(c2ccc(-n3c(=O)ccc4cnc5ccc(-c6cnc7ccccc7c6)cc5c43)cc2C(F)(F)F)CC1 was tested, and the % of control [5] was 24%.
N#Cc1cccc(-c2c[nH]c3ncnc(N4CCOCC4)c23)c1 was tested, and the % of inhibition [6] was 74% and the % of inhibition [7] was 6%.
CNC(=O)Nc1ccc(-c2nc(N3CC4CCC(C3)O4)c3cnn(C4CCC5(CC4)OCCO5)c3n2)cc1 gave a % of inhibition [8] of 2% and a % of control [9] of 100%.
